# Source: patent US20240287048A1, “SUBSTITUTED ACYL SULFONAMIDES FOR TREATING CANCER” (The Broad Institute, Inc., priority 2020, published 2024)
# pIC50: −log10 of the molar value.
# Legend:
# [1] = tested on: ESR1 transcription in MVLN cells; test: Repression of ESR1 transcription, MVLN luciferase reporter assay; assay type: cell-based; conditions: Homo sapiens, luciferase signal after 24 h, read-out: MVLN reporter assay, IC50[M] (arithmetic mean)
# Outline: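 MVLN cells stably carry an ER-responsive vitellogenin A2 element driving luciferase. After 24 h of compound treatment, luciferase was read in lysate as the measure of ERα transcription. Alamar Blue fluorescence (530/590 nm, 2 h) was read first to control for cell loss; samples were run in duplicate.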
# [2] = tested on: ZR-75-1 cells; test: Proliferation assay in ZR-75-1 cells; assay type: cell-based; conditions: Homo sapiens, 144 h, Alamar Blue, read-out: ZR75-1 proliferation assay, EC50[M] (arithmetic mean)
# Source text: (§1) For compound characterization cell survival assays were routinely run in two cell lines. ZR-75-1 is a breast carcinoma cell line containing a focal KAT6A amplification and high KAT6A protein expression. Proliferation of this cell line is inhibited upon treatment with KAT6A inhibitors. As a negative control cell line MDA-MB-436 were used. These cells carry a […] deletion of the KAT6A gene, have a low KAT6A protein expression and are not growth inhibited upon treatment with KAT6A inhibitors.
# (§2) For measurements cell lines were plated at the below indicated concentration per […] in 96-well plates in a humidified incubator at 37° C. and 5% CO2.
# (§3) ZR-75-1 (ATCC, CRL-1500; breast carcinoma); 3000 cells per well; culture medium: RPMI 1640 (Biochrom #FG 1215) medium containing 2.5% FBS (Biochrom #S0615). LCLC-97TM1 (DSMZ, ACC 388; large cell lung carcinoma); 6000 cells per well; culture medium: RPMI 1640 (Biochrom #FG 1215) medium containing 2.5% FBS (Biochrom #S0615). MDA-MB-436 (CLS, 300278; breast adenocarcinoma); 3000 cells per well; culture medium: DMEM/Ham's F12 (Biochrom #FG 4815) medium containing 2.5% FBS (Biochrom #S0615).
# (§4) Each sample was prepared as triplicate and rim wells were excluded. Plates were incubated at 37° C. and 5% CO2 for 144 h. Cell viability was measured by adding 10 μL of Alamar Blue Reagent (Invitrogen #DAL 1100) and plates were incubated for 2 h at 37° C. and 5% CO2. Fluorescence was measured at 590 nm wavelength with a Tecan Spark or Victor X3 MTP-Reader (PerkinElmer).
# [3] = tested on: MDA-MB-436 cells; test: Proliferation assay in MDA-MB-436 cells (negative control cell line); assay type: cell-based; conditions: Homo sapiens, 144 h, Alamar Blue, read-out: MDA-MB-436 proliferation assay, EC50[M] (arithmetic mean)
# Source text: as §1, §2, §3, §4
# [4] = molecular target: T1, KAT6B (Homo sapiens, UniProt Q8WYB5); test: Kat6b activity assay (TR-FRET, acetylation of biotinylated histone H4 peptide); assay type: biochemical; conditions: recombinant human GST-tagged Kat6b (431-end), 30 mins at 22° C., read-out: KAT6B activity assay IC50 [mol/l] (arithmetic mean)
# T1 construct: fused on or other part: N-terminal GST tag
# T1 sequence (Q8WYB5 723-2073 limits assumed): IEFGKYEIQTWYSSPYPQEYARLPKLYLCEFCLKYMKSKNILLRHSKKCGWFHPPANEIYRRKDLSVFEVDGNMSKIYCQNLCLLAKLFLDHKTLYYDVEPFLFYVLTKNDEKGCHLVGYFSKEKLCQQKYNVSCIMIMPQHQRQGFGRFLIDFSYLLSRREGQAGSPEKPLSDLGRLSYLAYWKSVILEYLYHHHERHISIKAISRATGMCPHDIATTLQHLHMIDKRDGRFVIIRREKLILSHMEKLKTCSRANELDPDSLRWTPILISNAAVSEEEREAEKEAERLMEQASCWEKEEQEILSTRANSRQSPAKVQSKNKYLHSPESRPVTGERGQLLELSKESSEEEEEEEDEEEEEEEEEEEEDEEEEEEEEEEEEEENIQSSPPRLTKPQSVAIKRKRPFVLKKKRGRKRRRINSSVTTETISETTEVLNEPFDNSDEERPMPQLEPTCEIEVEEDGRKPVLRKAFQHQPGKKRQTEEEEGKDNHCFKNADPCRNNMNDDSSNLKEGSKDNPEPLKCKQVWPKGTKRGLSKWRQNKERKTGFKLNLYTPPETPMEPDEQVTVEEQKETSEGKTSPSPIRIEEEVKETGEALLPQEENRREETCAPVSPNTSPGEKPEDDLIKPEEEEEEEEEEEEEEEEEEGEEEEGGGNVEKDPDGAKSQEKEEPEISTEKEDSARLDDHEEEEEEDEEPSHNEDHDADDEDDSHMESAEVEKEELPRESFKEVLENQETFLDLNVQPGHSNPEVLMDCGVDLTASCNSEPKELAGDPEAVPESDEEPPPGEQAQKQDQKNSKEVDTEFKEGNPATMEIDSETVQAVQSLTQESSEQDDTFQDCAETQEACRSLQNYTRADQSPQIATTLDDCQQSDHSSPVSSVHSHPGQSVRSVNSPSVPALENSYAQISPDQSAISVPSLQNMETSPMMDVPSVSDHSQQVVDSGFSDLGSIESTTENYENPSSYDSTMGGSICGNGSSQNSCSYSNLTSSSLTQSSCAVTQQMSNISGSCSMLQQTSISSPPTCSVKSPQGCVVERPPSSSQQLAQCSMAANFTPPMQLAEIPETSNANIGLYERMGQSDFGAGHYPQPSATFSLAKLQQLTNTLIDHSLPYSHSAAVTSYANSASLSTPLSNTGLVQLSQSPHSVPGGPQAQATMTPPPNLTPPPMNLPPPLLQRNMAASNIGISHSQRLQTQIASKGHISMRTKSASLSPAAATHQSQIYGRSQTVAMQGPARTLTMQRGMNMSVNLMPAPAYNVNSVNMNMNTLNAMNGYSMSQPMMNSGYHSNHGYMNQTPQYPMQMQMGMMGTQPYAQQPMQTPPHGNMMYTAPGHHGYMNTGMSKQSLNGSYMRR
# Source text: Kat6b inhibitory activities of the compounds described in the present invention were quantified using a Fluorescence Resonance Energy Transfer (TR-FRET) assay which measures acetylation of a synthetic, biotinylated Histone-H4-derived peptide by the enzyme.
# Recombinant human GST-tagged Kat6b protein (431-end, N-terminal GST-tag), purified from Baculovirus-infected insect cells (Sf9), was purchased from SignalChem (#K315-381BG). Histone H4 peptide (amino acids 1-24, […]-VLRD-K(Btn)-amide), which was used as substrate, was synthesized by Biosyntan GmbH, Berlin, Germany. Acetyl Coenzyme A was purchased from Sigma-Aldrich (#A-2056).
# Kat6b was incubated for 30 mins at 22° C. in the presence of different concentrations of test substances (0 μM, and within the range 0.01-20 μM) in assay buffer [25 mM Tris/HCl pH 8, 1 mM EGTA, 2.5 mM Glutathion, 0.02% Chicken Albumin, 0.05% Pluronic F127, 25 mM NaCl, 500 nM H4 peptide and 600 nM Acetyl Coenzyme A].
# The reaction was stopped by addition of Detection Solution (25 mM HEPES pH 7.5, 0.1% BSA, 22 nM SAXL665 (Cisbio #610SAXLE), 100 μM Anacardic Acid (Enzo #ALX-270-381), 1 nM Anti-Histone H4 (ACETYL K8) Antibody (ABCAM #AB15823), 0.5 nM Anti-Rabbit IgG Eu (Perkin Elmer #AD0083).
# The fluorescence emission at 620 nm and 665 nm after excitation at 330-350 nm was measured in a TR-FRET measuring instrument, for instance a Rubystar or a Pherastar (both from BMG Lab Technologies, Offenburg, Germany) or a Viewlux (Perkin-Elmer). The ratio of the emission at 665 nm and at […] was used as indicator of the amount of acetylated peptide.
# The resulting data (ratio) were normalized, taking 0% inhibition as the mean value of control measurements where all reagents were included. In this case 50 nl DMSO were used instead of compounds. […] IC50 values were determined by regression analysis based on a 4 parameter equation (minimum, maximum, ICM, Hill; Y=Max+(Min−Max)/(1+(X/ICso) Hill) using the Screener Software (Genedata).
# [5] = tested on: LCLC-97TM1 cells; test: Proliferation assay in LCLC-97TM1 cells; assay type: cell-based; conditions: Homo sapiens, 144 h, Alamar Blue, read-out: LCLC97TM1 proliferation assay, EC50[M] (arithmetic mean)
# Experimental: as §2, §3, §4
# [6] = molecular target: T2, KAT6A (Homo sapiens, UniProt Q92794); test: Kat6a activity assay (TR-FRET, acetylation of biotinylated histone H4 peptide); assay type: biochemical; conditions: recombinant human His-tagged Kat6a (amino acids 194-810), 60 mins at 22° C., read-out: KAT6A-DPF/HAT domain IC50 [mol/l] (arithmetic mean)
# T2 construct: Recombinant human His-tagged Kat6a protein (amino acids 194-810); His; made in house; host or cells: Baculovirus-infected Sf9 insect cells
# T2 sequence (Q92794 194-810): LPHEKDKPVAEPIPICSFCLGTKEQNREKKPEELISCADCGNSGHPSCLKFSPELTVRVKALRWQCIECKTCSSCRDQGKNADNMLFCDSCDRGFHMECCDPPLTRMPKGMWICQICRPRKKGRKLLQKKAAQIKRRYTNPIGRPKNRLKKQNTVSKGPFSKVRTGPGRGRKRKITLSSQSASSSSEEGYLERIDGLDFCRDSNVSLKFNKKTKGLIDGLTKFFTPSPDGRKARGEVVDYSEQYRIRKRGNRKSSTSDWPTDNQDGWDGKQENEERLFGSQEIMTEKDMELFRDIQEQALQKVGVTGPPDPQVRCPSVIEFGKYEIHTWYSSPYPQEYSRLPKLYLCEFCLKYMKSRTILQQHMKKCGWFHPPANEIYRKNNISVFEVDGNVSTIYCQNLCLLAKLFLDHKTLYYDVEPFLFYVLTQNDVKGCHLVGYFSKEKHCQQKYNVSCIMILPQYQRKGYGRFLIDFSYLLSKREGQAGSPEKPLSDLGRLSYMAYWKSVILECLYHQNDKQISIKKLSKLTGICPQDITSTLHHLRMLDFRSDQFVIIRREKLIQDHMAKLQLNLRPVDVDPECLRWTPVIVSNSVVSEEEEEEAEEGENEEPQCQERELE
# Outline: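 His-tagged human Kat6a (aa 194-810, Sf9-expressed) with compound (0.01-20 μM) for 60 min at 22° C., pH 8 Tris buffer, 220 nM biotinylated H4 peptide (aa 1-24) and 600 nM acetyl-CoA. Acetyl-K8 detected by Eu-antibody/SA-XL665 TR-FRET (665/620 nm ratio); IC50 from 4-parameter fit.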
SMILES,IC50 [1] [M],EC50 [3] [M],pIC50 [4],pIC50 [6],EC50 [2] [M],EC50 [5] [M]
"CC(C)c1ccc2cc(C(=O)NS(=O)(=O)c3ccccc3-c3ccccc3)oc2c1 [Example 54, N-{[1,1′-Biphenyl]-2-sulfonyl}-6-(propan-2-yl)-1-benzofuran-2-carboxamide]",3.02e-06,> 2e-05,6.18,6.33,5.75e-06,> 2e-05
"COc1cc(C)cc2oc(C(=O)NS(=O)(=O)c3ccccc3-c3ccccc3)cc12 [Example 10, N-([1,1′-biphenyl]-2-sulfonyl)-4-methoxy-6-methyl-1-benzofuran-2-carboxamide]",1e-05,> 2e-05,5.95,6.03,1.39e-05,–
"Cc1cc(C)c2cc(C(=O)NS(=O)(=O)c3ccccc3-c3ccccc3C)oc2c1 [Example 6, 4,6-Dimethyl-N-(2′-methyl[1,1′-biphenyl]-2-sulfonyl)-1-benzofuran-2-carboxamide]",5.55e-06,> 2e-05,6.61,6.89,> 2e-05,–

# Further lines, with some results ahead:
IC50 [1] [M],EC50 [3] [M],pIC50 [4],pIC50 [6],SMILES,EC50 [2] [M],EC50 [5] [M]
4.54e-06,> 2e-05,6.94,7.06,"Cc1ccc(S(=O)(=O)NC(=O)c2cc3c(C)cc(C)cc3o2)c(-c2ccccc2)c1 [Example 7, 4,6-Dimethyl-N-(5-methyl[1,1′-biphenyl]-2-sulfonyl)-1-benzofuran-2-carboxamide]",> 2e-05,–
6.05e-06,> 2e-05,6.43,6.40,"COc1cc(C)cc2oc(C(=O)NS(=O)(=O)c3ccc(C)cc3-c3ccccc3)cc12 [Example 12, 4-Methoxy-6-methyl-N-(5-methyl[1,1′-biphenyl]-2-sulfonyl)-1-benzofuran-2-carboxamide]",1.03e-05,–
5.85e-06,1.42e-05,6.52,7.20,"Cc1cc(C)c2cc(C(=O)NS(=O)(=O)c3ccccc3-c3cccc(Cl)c3)oc2c1 [Example 11, N-(3′-chloro[1,1′-biphenyl]-2-sulfonyl)-4,6-dimethyl-1-benzofuran-2-carboxamide]",1.17e-05,–
2.5e-06,> 2e-05,6.66,7.04,"Cc1cc(C)c2cc(C(=O)NS(=O)(=O)c3ccccc3-c3ccccc3)oc2c1 [Example 9, N-([1,1′-biphenyl]-2-sulfonyl)-4,6-dimethyl-1-benzofuran-2-carboxamide]",1.81e-05,–
